Several values for one entry are separate records, joined by “and”; a condition that tells them apart may be missing. Identical values can stand only once. Toxic doses and inconclusive results are not listed. Cut-off read from the data, not from the text of the source: active = T/C of 150% or more; inactive = T/C below 125%.
Tested on: L1210 leukemia ip in BDF1 mice, survival T/C
Experiment: NCI In Vivo Anticancer Drug Screen. Data for tumor model L1210 Leukemia (intraperitoneal) in B6D2F1 (BDF1) mice
Settings: endpoint: mean survival time, higher = longer survival
Procedure, shortened: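 In this screen, tumor-bearing mice given compound are compared to those given vehicle, and their survival values are reported as a treated-to-control quotient.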

[1] = dose: 25.0 mg/kg/injection, schedule: Q04DX003 (ip), vehicle: saline
[2] = dose: 50.0 mg/kg/injection, schedule: Q04DX003 (ip), vehicle: saline
[3] = dose: 100.0 mg/kg/injection, schedule: Q04DX003 (ip), vehicle: saline
[4] = dose: 100.0 mg/kg/injection, schedule: Q01DX001 (ip), vehicle: carboxymethylcellulose (CMC)
[5] = dose: 200.0 mg/kg/injection, schedule: Q01DX001 (ip), vehicle: carboxymethylcellulose (CMC)
[6] = dose: 400.0 mg/kg/injection, schedule: Q01DX001 (ip), vehicle: carboxymethylcellulose (CMC)
[7] = dose: 50.0 mg/kg/injection, schedule: Q01DX001 (ip), vehicle: carboxymethylcellulose (CMC)
[8] = dose: 100.0 mg/kg/injection, schedule: Q01DX001 (ip), vehicle: saline
[9] = dose: 100.0 mg/kg/injection, schedule: Q04DX002 (ip), vehicle: saline
[10] = dose: 100.0 mg/kg/injection, schedule: Q04DX003 (ip), vehicle: saline with Tween-80
[11] = dose: 200.0 mg/kg/injection, schedule: Q01DX001 (ip), vehicle: saline
[12] = dose: 200.0 mg/kg/injection, schedule: Q04DX002 (ip), vehicle: saline
[13] = dose: 200.0 mg/kg/injection, schedule: Q04DX003 (ip), vehicle: saline with Tween-80
[14] = dose: 200.0 mg/kg/injection, schedule: Q04DX003 (ip), vehicle: saline
[15] = dose: 400.0 mg/kg/injection, schedule: Q04DX003 (ip), vehicle: saline
[16] = dose: 100.0 mg/kg/injection, schedule: Q01DX009 (ip), vehicle: Klucel (hydroxypropylcellulose) (HPC)
[17] = dose: 200.0 mg/kg/injection, schedule: Q01DX009 (ip), vehicle: Klucel (hydroxypropylcellulose) (HPC)
[18] = dose: 400.0 mg/kg/injection, schedule: Q01DX009 (ip), vehicle: Klucel (hydroxypropylcellulose) (HPC)
[19] = dose: 12.5 mg/kg/injection, schedule: Q04DX003 (ip), vehicle: saline

Measured: T/C

CCNCCCCCCNCC
inactive: dose: 12.5 mg/kg/injection, schedule: Q01DX009 (ip), vehicle: saline 97 % of control | dose: 25.0 mg/kg/injection, schedule: Q01DX009 (ip), vehicle: saline 108 % of control | [1] 98 % of control | dose: 50.0 mg/kg/injection, schedule: Q01DX009 (ip), vehicle: saline 93 % of control | [2] 107 % of control | [3] 87 % of control

CCOC(=O)C[n+]1cccc(Br)c1
inactive: [4] 91 % of control | [5] 104 % of control | [6] 104 % of control

Cc1ccc(S(=O)(=O)Nc2cc(C)ccc2C)cc1
inactive: [7] 93 % of control | [4] 95 % of control | [5] 104 % of control | [6] 88 % of control

O=C(O)c1cccc(S)c1
inactive: dose: 100.0 mg/kg/injection, schedule: Q04DX002 (ip), vehicle: saline with Tween-80 113 % of control | dose: 200.0 mg/kg/injection, schedule: Q04DX002 (ip), vehicle: saline with Tween-80 113 % of control

CC(C)(C)C(=O)CC(=O)C(C)(C)C
inactive: [8] 101 % of control | dose: 100.0 mg/kg/injection, schedule: Q01DX009 (ip), vehicle: other 92 % of control | dose: 100.0 mg/kg/injection, schedule: Q01DX009 (ip), vehicle: saline with Tween-80 91 % of control | dose: 100.0 mg/kg/injection, schedule: Q04DX002 (ip), vehicle: other 102 % of control | [9] 116 % of control | [10] 103 % of control | [3] 98 % of control | [11] 110 % of control | dose: 200.0 mg/kg/injection, schedule: Q01DX009 (ip), vehicle: other 97 % of control | dose: 200.0 mg/kg/injection, schedule: Q01DX009 (ip), vehicle: saline with Tween-80 97 % of control | dose: 200.0 mg/kg/injection, schedule: Q04DX002 (ip), vehicle: other 97 % of control | [12] 101 % of control | [13] 103 % of control | [14] 103 % of control | dose: 400.0 mg/kg/injection, schedule: Q01DX001 (ip), vehicle: saline 102 % of control | dose: 400.0 mg/kg/injection, schedule: Q01DX009 (ip), vehicle: other 97 % of control | dose: 400.0 mg/kg/injection, schedule: Q01DX009 (ip), vehicle: saline with Tween-80 91 % of control | dose: 400.0 mg/kg/injection, schedule: Q04DX002 (ip), vehicle: other 102 % of control | dose: 400.0 mg/kg/injection, schedule: Q04DX002 (ip), vehicle: saline 108 % of control | [15] 95 % of control

CCN(CC)C(=O)C(Cc1ccc(OC)c(OC)c1)C(Cc1ccc(OC)c(OC)c1)C(=O)O (stereo unspecified)
inactive: [10] 114 % of control | [13] 102 % of control | dose: 400.0 mg/kg/injection, schedule: Q04DX003 (ip), vehicle: saline with Tween-80 105 % of control

Cc1ccc(S(=O)(=O)N2CCc3ccccc3C3(C2)OCCO3)cc1
inactive: [4] 96 % of control | [5] 96 % of control | [6] 98 % of control

CN(C)C(=O)C(=O)c1cn(C)c2ccccc12
inactive: [7] 95 % of control | [4] 109 % of control | [5] 93 % of control | [6] 101 % of control

C=CCNC(=S)NNC(=O)c1ccncc1
inactive: [16] 107 % of control | [17] 108 % of control | [18] 104 % of control

Cc1ccnc(/C=N/NC(N)=S)c1
inactive: [9] 108 % of control | [12] 86 % of control

CC1CCOS(=O)O1 (stereo unspecified)
inactive: dose: 20.0 mg/kg/injection, schedule: Q01DX010 (ip), vehicle: saline 96 % of control and 98 % of control | dose: 24.0 mg/kg/injection, schedule: Q01DX Z (ip), vehicle: carboxymethylcellulose (CMC) 104 % of control and 92 % of control | dose: 36.0 mg/kg/injection, schedule: Q01DX Z (ip), vehicle: carboxymethylcellulose (CMC) 95 % of control and 109 % of control | dose: 40.0 mg/kg/injection, schedule: Q01DX010 (ip), vehicle: saline 95 % of control and 96 % of control | dose: 50.0 mg/kg/injection, schedule: Q01DX001 (ip), vehicle: saline 98 % of control | dose: 54.0 mg/kg/injection, schedule: Q01DX Z (ip), vehicle: carboxymethylcellulose (CMC) 101 % of control and 111 % of control | dose: 80.0 mg/kg/injection, schedule: Q01DX010 (ip), vehicle: saline 98 % of control and 104 % of control | dose: 81.0 mg/kg/injection, schedule: Q01DX Z (ip), vehicle: carboxymethylcellulose (CMC) 96 % of control and 104 % of control | [8] 98 % of control and 102 % of control | [11] 104 % of control

CN1CCN(C(=O)N2c3ccccc3Sc3ccccc32)CC1
inactive: [19] 99 % of control | [1] 95 % of control | [2] 101 % of control | [3] 100 % of control | [14] 92 % of control

NC(=O)C[n+]1cccc(C(N)=O)c1
inactive: [3] 97 % of control | [14] 101 % of control | [15] 101 % of control

O=S(=O)(Nc1ccccc1)c1ccccc1C=C(c1ccccc1)c1ccccc1
inactive: dose: 100.0 mg/kg/injection, schedule: Q01DX001 (ip), vehicle: steriod suspending solution 105 % of control | dose: 200.0 mg/kg/injection, schedule: Q01DX001 (ip), vehicle: steriod suspending solution 86 % of control | dose: 400.0 mg/kg/injection, schedule: Q01DX001 (ip), vehicle: steriod suspending solution 97 % of control

CCOC(=O)C(C)(Cc1c(C)cc(C)c(CC(C)(C(=O)OCC)C(=O)OCC)c1C)C(=O)OCC
inactive: dose: 25.0 mg/kg/injection, schedule: Q01DX009 (ip), vehicle: Klucel (hydroxypropylcellulose) (HPC) 95 % of control | dose: 25.0 mg/kg/injection, schedule: Q04DX003 (ip), vehicle: Klucel (hydroxypropylcellulose) (HPC) 98 % of control | dose: 50.0 mg/kg/injection, schedule: Q01DX009 (ip), vehicle: Klucel (hydroxypropylcellulose) (HPC) 91 % of control | dose: 50.0 mg/kg/injection, schedule: Q04DX003 (ip), vehicle: Klucel (hydroxypropylcellulose) (HPC) 96 % of control | [16] 96 % of control | dose: 100.0 mg/kg/injection, schedule: Q04DX003 (ip), vehicle: Klucel (hydroxypropylcellulose) (HPC) 100 % of control

CC(=O)Nc1ccc(NC(=O)Nc2cc([N+](=O)[O-])ccc2C)cc1
inactive: [16] 95 % of control | [17] 93 % of control | [18] 96 % of control

C[N+](C)(C)CSSC[N+](C)(C)C
inactive: [19] 92 % of control | [1] 87 % of control | [2] 93 % of control

c1cc[c]([Sn]([S]c2ncnc3c2nc[n]3[Sn]([c]2ccccc2)([c]2ccccc2)[c]2ccccc2)([c]2ccccc2)[c]2ccccc2)cc1.c1cc[c]([Sn]([S]c2ncnc3nc[nH]c23)([c]2ccccc2)[c]2ccccc2)cc1
inactive: dose: 5.0 mg/kg/injection, schedule: Q01DX001 (ip), vehicle: other 122 % of control | dose: 10.0 mg/kg/injection, schedule: Q01DX001 (ip), vehicle: other 100 % of control | dose: 20.0 mg/kg/injection, schedule: Q01DX001 (ip), vehicle: other 100 % of control

Source: PubChem BioAssay AID248 (DTP/NCI, 2004)
